This passage reports IC50 results from US20260297085A1, “1 H-PYRROLO[2,3-B]PYRIDIN-4-YL]-2-OXOPYRROLIDINE-3-CARBONITRILE DERIVATIVES AS TYROSINE KINASE 2 (TYK2) INHIBITORS FOR THE TREATMENT OF INFLAMMATORY DISEASES” (BIOGEN MA INC., priority 2023, published 2026).

Each structure is given as a SMILES string. Counter-ions that a name gives are not always drawn. Bounds are passed on as bounds.

Experiment [1] concerns the target JAK1 kinase activity on STAT3 in TF1 cells (Homo sapiens, UniProt P23458). The experiment is described as follows: pSTAT3 cell assay (MSD; TF1 cells, 30 ng/mL IL-6 stimulation). The experiment is classed as cell-based. To be noted: 30 ng/mL IL-6, 15 minutes. The protocol:
The inhibitory potency of compounds of the disclosure against the JAK1 kinase activity on STAT3 was evaluated using an MSD-platform plate-based assay format. TF1 cells natively expressing STAT3 and JAK1 were serum-starved to reduce background phosphorylation levels, then cells were treated with compounds of the disclosure for 1 hour with a 10-point four-fold dilution series starting at 10 μM. Cells were then stimulated with 30 ng/mL interleukin 6 (IL-6) for 15 minutes. Cells were lysed and pSTAT3 levels were quantitated using an MSD plate-based assay with anti-STAT3 antibodies. The data were normalized and the percent activity versus log concentration of compound was fitted with a 4-parameter logistic model to generate IC50 curves.

Experiment [2] addresses Tyk2 kinase activity on STAT4 in NK92 cells (Homo sapiens, UniProt P29597). Description: pSTAT4 cell assay (MSD; NK92 cells, 30 ng/mL IL2 stimulation). The experiment is classed as cell-based. To be noted: 30 ng/mL IL2, 15 minutes. The gist of the method:
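Serum-starved NK92 cells, which natively express Tyk2 and STAT4, were pretreated for 1 h with a 10-point 4-fold dilution series from 10 μM. They were then stimulated with 30 ng/mL IL2 for 15 min. Phospho-STAT in lysates was quantified by MSD with anti-STAT4 antibodies, and IC50 was obtained from 4-parameter logistic fits.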

For experiment [3], the target named is T1, human JAK3 kinase domain (JH1) (Homo sapiens, UniProt P52333).
T1 construct: recombinantly generated catalytic kinase (also known as JH1) domain of human JAK1, JAK2, JAK3 and TYK2
T1 sequence (P52333 822-1111 limits assumed): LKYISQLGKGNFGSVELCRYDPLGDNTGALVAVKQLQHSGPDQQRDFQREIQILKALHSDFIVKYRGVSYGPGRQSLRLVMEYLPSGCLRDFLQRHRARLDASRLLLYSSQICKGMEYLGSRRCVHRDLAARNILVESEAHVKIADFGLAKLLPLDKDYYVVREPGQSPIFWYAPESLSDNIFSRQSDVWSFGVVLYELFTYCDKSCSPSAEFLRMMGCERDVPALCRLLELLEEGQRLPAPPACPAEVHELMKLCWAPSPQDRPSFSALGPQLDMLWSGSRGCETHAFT
The experiment is described as follows: JH1 biochemical assay for JAK3 (ADP-Glo kinase assay, recombinant JH1 catalytic domain, JAK3-974 peptide, 4 μM ATP). The gist of the method:
(§1)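 Kinase 4 nM JAK1 / 0.2 nM JAK2 / 0.3 nM JAK3 / 2 nM TYK2; 50 μM peptide; 100 min. Unused ATP depleted, ADP→ATP, luciferase luminescence. 11-pt 3-fold series from 10 or 1 μM; normalized, 4PL fit → IC50.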
In general terms: ADP-Glo first removes unused ATP, then detects ADP through luciferase.

The target of experiment [4] is T2, human TYK2 kinase domain (JH1) (Homo sapiens, UniProt P29597).
T2 construct: recombinantly generated catalytic kinase (also known as JH1) domain of human JAK1, JAK2, JAK3 and TYK2
T2 sequence (P29597 897-1176 limits assumed): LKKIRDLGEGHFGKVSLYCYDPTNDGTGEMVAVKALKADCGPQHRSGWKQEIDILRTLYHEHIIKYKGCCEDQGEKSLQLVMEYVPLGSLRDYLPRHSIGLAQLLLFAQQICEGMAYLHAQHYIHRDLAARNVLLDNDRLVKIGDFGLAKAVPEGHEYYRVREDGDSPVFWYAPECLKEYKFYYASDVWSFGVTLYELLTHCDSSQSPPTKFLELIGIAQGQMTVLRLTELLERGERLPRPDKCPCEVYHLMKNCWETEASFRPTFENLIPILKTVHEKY
The experiment is described as follows: JH1 biochemical assay for TYK2 (ADP-Glo kinase assay, recombinant JH1 catalytic domain, JAK3-974 peptide, 10 μM ATP). An outline of the steps:
as §1

Experiment [5] concerns the target T3, human JAK2 kinase domain (JH1) (Homo sapiens, UniProt O60674).
T3 construct: recombinantly generated catalytic kinase (also known as JH1) domain of human JAK1, JAK2, JAK3 and TYK2
The experiment is described as follows: JH1 biochemical assay for JAK2 (ADP-Glo kinase assay, recombinant JH1 catalytic domain, JAK3-974 peptide, 15 μM ATP). An outline of the steps:
as §1

In experiment [6] the target is JAK2 kinase activity on STAT5 in TF1 cells (Homo sapiens, UniProt O60674). The experiment is described as follows: pSTAT5 cell assay (MSD; TF1 cells, 30 ng/mL IL-3 stimulation). To be noted: 30 ng/mL IL-3, 15 minutes. The format is cell-based. The protocol:
The inhibitory potency of compounds of the disclosure against the JAK2 kinase activity on STAT5 was evaluated using an MSD-platform plate-based assay format. TF1 cells natively expressing STAT5 and JAK2 were serum-starved to reduce background phosphorylation levels, then cells were treated with compounds of disclosure for 1 hour with a 10-point four-fold dilution series starting at 10 μM. Cells were then stimulated with 30 ng/mL IL-3 for 15 minutes. Cells were then lysed and pSTAT5 levels were quantitated using an MSD plate-based assay with anti-STAT5 antibodies. The data were normalized and the percent activity versus log concentration of compound was fitted with a 4-parameter logistic model to generate a curve and an IC50 value.

For experiment [7], the target named is T4, human JAK1 kinase domain (JH1) (Homo sapiens, UniProt P23458).
T4 construct: recombinantly generated catalytic kinase (also known as JH1) domain of human JAK1, JAK2, JAK3 and TYK2
T4 sequence (P23458 875-1153 limits assumed): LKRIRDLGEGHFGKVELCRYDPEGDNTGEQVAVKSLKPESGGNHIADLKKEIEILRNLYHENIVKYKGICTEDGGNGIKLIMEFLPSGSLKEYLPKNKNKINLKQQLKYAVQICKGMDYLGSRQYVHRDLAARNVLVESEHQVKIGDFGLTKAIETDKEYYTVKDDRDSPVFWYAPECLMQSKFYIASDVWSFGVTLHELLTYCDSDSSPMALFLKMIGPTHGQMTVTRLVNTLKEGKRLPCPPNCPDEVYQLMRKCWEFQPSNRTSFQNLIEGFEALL
Description: JH1 biochemical assay for JAK1 (ADP-Glo kinase assay, recombinant JH1 catalytic domain, JAK3-342 peptide, 35 μM ATP). The gist of the method: as §1

Chain of JAK1 kinase activity on STAT3 in TF1 cells (P23458 whole entry): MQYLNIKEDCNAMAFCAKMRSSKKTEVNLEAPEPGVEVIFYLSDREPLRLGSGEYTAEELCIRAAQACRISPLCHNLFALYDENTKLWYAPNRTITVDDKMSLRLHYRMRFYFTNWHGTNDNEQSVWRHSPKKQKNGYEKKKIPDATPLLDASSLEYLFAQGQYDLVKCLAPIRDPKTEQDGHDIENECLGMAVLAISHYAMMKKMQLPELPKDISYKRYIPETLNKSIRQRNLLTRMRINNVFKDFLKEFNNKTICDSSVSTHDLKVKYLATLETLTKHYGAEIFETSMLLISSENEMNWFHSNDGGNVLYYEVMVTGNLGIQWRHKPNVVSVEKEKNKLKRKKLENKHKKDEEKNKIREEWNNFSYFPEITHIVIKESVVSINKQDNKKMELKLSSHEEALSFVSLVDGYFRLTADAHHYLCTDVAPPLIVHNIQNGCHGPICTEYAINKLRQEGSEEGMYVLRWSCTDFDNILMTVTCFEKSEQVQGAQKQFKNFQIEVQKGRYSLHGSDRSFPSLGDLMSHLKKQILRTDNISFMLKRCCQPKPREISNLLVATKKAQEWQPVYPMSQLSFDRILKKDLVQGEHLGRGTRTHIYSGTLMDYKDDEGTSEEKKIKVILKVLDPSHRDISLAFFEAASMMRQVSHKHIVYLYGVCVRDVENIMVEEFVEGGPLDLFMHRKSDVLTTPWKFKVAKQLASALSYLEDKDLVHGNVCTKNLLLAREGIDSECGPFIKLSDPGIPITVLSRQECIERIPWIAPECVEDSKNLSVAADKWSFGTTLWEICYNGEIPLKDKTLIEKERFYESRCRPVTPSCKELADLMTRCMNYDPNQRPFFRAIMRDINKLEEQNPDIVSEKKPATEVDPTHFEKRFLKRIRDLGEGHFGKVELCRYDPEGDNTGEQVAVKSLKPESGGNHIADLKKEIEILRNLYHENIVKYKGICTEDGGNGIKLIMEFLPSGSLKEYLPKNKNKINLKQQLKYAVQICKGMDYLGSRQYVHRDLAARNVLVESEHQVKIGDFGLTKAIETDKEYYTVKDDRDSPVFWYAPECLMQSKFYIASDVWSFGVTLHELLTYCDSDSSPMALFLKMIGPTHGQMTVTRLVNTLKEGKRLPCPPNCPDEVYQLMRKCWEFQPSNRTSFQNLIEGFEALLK
Chain of Tyk2 kinase activity on STAT4 in NK92 cells (P29597 whole entry): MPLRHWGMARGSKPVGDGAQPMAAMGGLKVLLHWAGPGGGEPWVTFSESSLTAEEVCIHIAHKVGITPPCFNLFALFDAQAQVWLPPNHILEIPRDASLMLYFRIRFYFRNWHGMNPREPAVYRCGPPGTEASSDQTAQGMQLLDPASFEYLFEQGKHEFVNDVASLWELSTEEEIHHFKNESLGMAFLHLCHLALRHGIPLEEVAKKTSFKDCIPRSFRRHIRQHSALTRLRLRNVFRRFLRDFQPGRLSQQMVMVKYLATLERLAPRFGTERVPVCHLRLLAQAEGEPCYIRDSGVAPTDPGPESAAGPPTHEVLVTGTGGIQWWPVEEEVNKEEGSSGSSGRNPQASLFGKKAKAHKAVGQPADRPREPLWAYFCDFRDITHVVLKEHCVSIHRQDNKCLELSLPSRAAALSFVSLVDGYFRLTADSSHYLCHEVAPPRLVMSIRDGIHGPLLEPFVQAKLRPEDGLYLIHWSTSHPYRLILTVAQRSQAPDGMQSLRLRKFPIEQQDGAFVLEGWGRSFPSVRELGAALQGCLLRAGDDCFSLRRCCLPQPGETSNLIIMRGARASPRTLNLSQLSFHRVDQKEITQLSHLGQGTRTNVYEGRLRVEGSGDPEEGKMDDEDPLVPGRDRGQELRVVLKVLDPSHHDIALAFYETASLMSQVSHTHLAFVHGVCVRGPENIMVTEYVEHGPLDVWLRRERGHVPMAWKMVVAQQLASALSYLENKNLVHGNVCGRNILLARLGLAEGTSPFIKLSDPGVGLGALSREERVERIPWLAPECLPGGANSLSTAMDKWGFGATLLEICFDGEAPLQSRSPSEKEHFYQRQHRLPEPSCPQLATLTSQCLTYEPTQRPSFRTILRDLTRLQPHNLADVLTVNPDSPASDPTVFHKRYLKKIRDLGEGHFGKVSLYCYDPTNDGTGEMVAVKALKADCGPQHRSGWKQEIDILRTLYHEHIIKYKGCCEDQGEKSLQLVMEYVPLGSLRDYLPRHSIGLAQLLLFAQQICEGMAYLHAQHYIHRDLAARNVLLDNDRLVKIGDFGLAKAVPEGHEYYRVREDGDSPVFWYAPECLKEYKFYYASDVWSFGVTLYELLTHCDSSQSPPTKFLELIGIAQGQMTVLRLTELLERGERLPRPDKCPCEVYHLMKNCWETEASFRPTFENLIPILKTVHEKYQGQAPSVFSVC
T3 sequence (O60674 849-1124 limits assumed): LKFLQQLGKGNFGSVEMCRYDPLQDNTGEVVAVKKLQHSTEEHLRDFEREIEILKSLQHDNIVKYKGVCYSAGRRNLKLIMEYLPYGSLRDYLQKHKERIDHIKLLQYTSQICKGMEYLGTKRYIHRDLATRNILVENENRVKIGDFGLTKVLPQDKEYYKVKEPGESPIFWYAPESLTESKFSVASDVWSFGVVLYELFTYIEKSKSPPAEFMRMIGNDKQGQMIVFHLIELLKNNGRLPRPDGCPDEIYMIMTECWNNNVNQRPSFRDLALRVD
Chain of JAK2 kinase activity on STAT5 in TF1 cells (O60674 whole entry): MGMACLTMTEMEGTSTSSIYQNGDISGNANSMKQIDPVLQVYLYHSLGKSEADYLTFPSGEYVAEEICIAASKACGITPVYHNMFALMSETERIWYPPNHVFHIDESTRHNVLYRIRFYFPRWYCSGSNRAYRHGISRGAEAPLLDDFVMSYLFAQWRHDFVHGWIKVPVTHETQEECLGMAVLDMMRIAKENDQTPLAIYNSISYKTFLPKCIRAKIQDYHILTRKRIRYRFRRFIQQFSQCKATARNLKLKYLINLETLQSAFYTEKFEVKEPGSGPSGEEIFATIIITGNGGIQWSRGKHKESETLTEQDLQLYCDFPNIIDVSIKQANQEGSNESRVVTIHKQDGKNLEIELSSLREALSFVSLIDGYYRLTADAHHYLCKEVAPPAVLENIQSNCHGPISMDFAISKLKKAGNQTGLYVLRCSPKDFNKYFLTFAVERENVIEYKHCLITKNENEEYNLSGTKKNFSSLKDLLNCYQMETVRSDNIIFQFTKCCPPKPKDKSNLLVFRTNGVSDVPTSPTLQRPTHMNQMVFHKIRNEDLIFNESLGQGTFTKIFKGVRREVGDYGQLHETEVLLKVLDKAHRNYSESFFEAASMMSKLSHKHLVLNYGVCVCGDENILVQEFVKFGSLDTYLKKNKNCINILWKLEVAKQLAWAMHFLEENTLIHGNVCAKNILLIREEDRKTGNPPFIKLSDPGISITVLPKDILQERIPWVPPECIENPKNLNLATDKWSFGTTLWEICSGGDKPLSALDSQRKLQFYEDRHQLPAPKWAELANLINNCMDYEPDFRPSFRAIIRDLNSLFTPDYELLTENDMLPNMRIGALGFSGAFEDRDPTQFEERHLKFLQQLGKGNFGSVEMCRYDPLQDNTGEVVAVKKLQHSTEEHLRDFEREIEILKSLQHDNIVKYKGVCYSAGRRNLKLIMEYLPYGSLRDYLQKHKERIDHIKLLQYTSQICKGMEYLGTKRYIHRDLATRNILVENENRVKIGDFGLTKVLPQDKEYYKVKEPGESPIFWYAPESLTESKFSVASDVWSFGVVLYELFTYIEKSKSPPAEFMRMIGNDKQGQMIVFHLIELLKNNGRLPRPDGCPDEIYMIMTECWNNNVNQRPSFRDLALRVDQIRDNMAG

For orientation: IC50 means the concentration needed to halve the response being measured. For `CC(=O)Nc1cccc(-c2cc3c(N4C[C@@H](C)[C@@](C#N)(C5CC5)C4=O)ccnn3c2)n1` [Example 131, N-(6-(4-((3R,4S)-3-cyano-3-cyclopropyl-4-methyl-2-oxopyrrolidin-1-yl)pyrrolo[1,2-b]pyridazin-6-yl)pyridin-2-yl)acetamide trifluoroacetate], the IC50 in experiment [1] is 100 to 1000 nM; in experiment [2], 50 to 100 nM; in experiment [3] (JH1 kinase domain, ADP-Glo) it was 100 to 1000 nM; in experiment [4] (JH1 kinase domain, ADP-Glo), less than 5 nM; in experiment [5] (JH1 kinase domain, ADP-Glo), 100 to 1000 nM; in experiment [6], 1000 to 5000 nM. Moreover, the IC50 in experiment [7] (JH1 kinase domain, ADP-Glo) is less than 100 nM.

Take `C[C@@H]1CN(c2ccnn3cc(-c4cnc5[nH]ncc5c4)cc23)C(=O)[C@]1(C#N)C1CC1` [Example 75, (3R,4S)-1-(6-(1H-pyrazolo[3,4-b]pyridin-5-yl)pyrrolo[1,2-b]pyridazin-4-yl)-3-cyclopropyl-4-methyl-2-oxopyrrolidine-3-carbonitrile]: the IC50 in experiment [1] was 1000 to 5000 nM; in experiment [2], 50 to 100 nM; in experiment [3] (JH1 kinase domain, ADP-Glo) it was 100 to 1000 nM; in experiment [4] (JH1 kinase domain, ADP-Glo), less than 5 nM; in experiment [5] (JH1 kinase domain, ADP-Glo), 100 to 1000 nM; in experiment [6], greater than 10000 nM. Further, the IC50 in experiment [7] (JH1 kinase domain, ADP-Glo) is less than 100 nM.

As for `C[C@@H]1CN(c2cc(-c3cnn(C)c3)cc3ncsc23)C(=O)[C@]1(C#N)C1CC1` [Example 350, (3R,4S)-3-cyclopropyl-4-methyl-1-(5-(1-methyl-1H-pyrazol-4-yl)benzo[d]thiazol-7-yl)-2-oxopyrrolidine-3-carbonitrile], the IC50 is 100 to 1000 nM in experiment [1]; 50 to 100 nM in experiment [2]; less than 100 nM in experiment [3] (JAK3 JH1, ADP-Glo); less than 5 nM in experiment [4] (TYK2 JH1, ADP-Glo); 100 to 1000 nM in experiment [5] (JAK2 JH1, ADP-Glo); 1000 to 5000 nM in experiment [6]. Also, the IC50 in experiment [7] (JAK1 JH1, ADP-Glo) is less than 100 nM.

For the compound `COc1cc(-c2cc3c(N4C[C@@H](C)[C@@](C#N)(C5CC5)C4=O)ccnn3c2)ccn1` [Example 65, (3R,4S)-3-cyclopropyl-1-(6-(2-methoxypyridin-4-yl)pyrrolo[1,2-b]pyridazin-4-yl)-4-methyl-2-oxopyrrolidine-3-carbonitrile], the IC50 in experiment [1] was 1000 to 5000 nM; in experiment [2] it was 50 to 100 nM; in experiment [3] (JH1 kinase domain, ADP-Glo), 100 to 1000 nM; in experiment [4] (JH1 kinase domain, ADP-Glo), 5 to 20 nM; in experiment [5] (JH1 kinase domain, ADP-Glo), 100 to 1000 nM; in experiment [6], greater than 10000 nM. Also, in experiment [7] (JH1 kinase domain, ADP-Glo), the IC50 was 100 to 1000 nM.

Turning to `C[C@@H]1CN(c2ccnn3cc(-c4cnn(CC5(C#N)CC5)c4)cc23)C(=O)[C@]1(C#N)C1CC1` [Example 324, (3R,4S)-1-(6-(1-((1-cyanocyclopropyl)methyl)-1H-pyrazol-4-yl)pyrrolo[1,2-b]pyridazin-4-yl)-3-cyclopropyl-4-methyl-2-oxopyrrolidine-3-carbonitrile], the IC50 is 100 to 1000 nM in experiment [1]; 50 to 100 nM in experiment [2]; less than 100 nM in experiment [3] (JAK3 JH1, ADP-Glo); less than 5 nM in experiment [4] (TYK2 JH1, ADP-Glo); less than 100 nM in experiment [5] (JAK2 JH1, ADP-Glo); 100 to 1000 nM in experiment [6]. In addition, the IC50 in experiment [7] (JAK1 JH1, ADP-Glo) is less than 100 nM.

Take `C[C@@H]1CN(c2nc(-c3cnn(C45CC(C4)C5)c3)cn3ncc(F)c23)C(=O)[C@]1(C#N)C1CC1` [Example 207, (3R,4S)-1-(6-(1-(bicyclo[1.1.1]pentan-1-yl)-1H-pyrazol-4-yl)-3-fluoropyrazolo[1,5-a]pyrazin-4-yl)-3-cyclopropyl-4-methyl-2-oxopyrrolidine-3-carbonitrile]: the IC50 in experiment [1] was 100 to 1000 nM; in experiment [2], 50 to 100 nM; in experiment [3] (JH1 kinase domain, ADP-Glo), less than 100 nM; in experiment [4] (JH1 kinase domain, ADP-Glo), less than 5 nM; in experiment [5] (JH1 kinase domain, ADP-Glo) it was 100 to 1000 nM; in experiment [6] it was 1000 to 5000 nM. Moreover, in experiment [7] (JH1 kinase domain, ADP-Glo), the concentration for half-maximal inhibition (IC50) is less than 100 nM.

On to `CC(C)n1cc(-c2cc3c(N4C[C@@H](C)[C@@](C#N)(C5CC5)C4=O)ccnn3c2)cn1` [Example 167, (3R,4S)-3-cyclopropyl-1-(6-(1-isopropyl-1H-pyrazol-4-yl)pyrrolo[1,2-b]pyridazin-4-yl)-4-methyl-2-oxopyrrolidine-3-carbonitrile], for which the IC50 in experiment [1] is 100 to 1000 nM; in experiment [2], 20 to 50 nM; in experiment [3] (JH1 kinase domain, ADP-Glo), less than 100 nM; in experiment [4] (JH1 kinase domain, ADP-Glo), less than 5 nM; in experiment [5] (JH1 kinase domain, ADP-Glo) it was less than 100 nM; in experiment [6] it was 1000 to 5000 nM. The IC50 in experiment [7] (JH1 kinase domain, ADP-Glo) was less than 100 nM.
